The target in one test is T1, SIRT1 (Homo sapiens, UniProt Q96EB6).
T1 sequence (Q96EB6 1-747): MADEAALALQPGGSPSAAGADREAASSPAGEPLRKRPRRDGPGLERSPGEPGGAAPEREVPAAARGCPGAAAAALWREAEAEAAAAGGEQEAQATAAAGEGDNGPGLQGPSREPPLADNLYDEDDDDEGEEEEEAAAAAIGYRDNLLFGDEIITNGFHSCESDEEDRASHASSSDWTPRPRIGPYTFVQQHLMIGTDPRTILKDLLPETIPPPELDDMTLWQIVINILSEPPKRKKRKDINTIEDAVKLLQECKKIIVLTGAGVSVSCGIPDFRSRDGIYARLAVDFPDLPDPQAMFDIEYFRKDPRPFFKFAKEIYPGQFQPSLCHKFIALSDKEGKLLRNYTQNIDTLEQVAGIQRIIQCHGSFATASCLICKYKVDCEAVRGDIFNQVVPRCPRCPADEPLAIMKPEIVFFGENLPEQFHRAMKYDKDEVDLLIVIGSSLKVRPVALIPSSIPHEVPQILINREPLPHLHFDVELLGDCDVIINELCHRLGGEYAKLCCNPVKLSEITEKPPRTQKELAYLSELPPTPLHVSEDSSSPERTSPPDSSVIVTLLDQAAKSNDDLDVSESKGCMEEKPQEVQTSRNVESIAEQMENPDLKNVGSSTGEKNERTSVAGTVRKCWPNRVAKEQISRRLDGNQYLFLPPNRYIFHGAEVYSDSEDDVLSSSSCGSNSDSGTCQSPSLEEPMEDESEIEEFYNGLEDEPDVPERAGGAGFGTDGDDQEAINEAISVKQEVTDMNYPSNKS
The experiment in a line: Mass spectrometry based assay to identify modulators of SIRT1 activity (deacetylation of p53-based acetylated peptide substrate). It is filed as biochemical. The following applies: for Emax: 25 min, read-out: % FOLD ACT. (percent maximum fold activation); for Emax / EC1.5: SIRT1 activation. In outline: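 His-tagged human SIRT1 (10 nM, E. coli) incubated 25 min at 25 °C with […] p53-derived acetylated 5TMR peptide and 120 μM βNAD+ in pH 8 Tris-acetate buffer, then formic acid-stopped. Mass spectrometry quantifies acetylated vs deacetylated peptide; nicotinamide and DMSO controls.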

A further test relates to TNF. The experiment in a line: TNF IC50 (column of Table 1; method not shown). It is filed as cell-based.

The results in this text go back to patent US9556201B2, “Bicyclic pyridines and analogs as sirtuin modulators” (GLAXOSMITHKLINE LLC, priority 2009, dated 2017).

One may read the IC50 as the concentration needed to halve the response being measured.

Regarding `O=C(Nc1ccncc1)N1CCOc2ccc(-c3cccc(C(F)(F)F)c3)nc21` [Compound 501], on SIRT1, the Emax is over 200% and the EC1.5 entry is reported as “A (EC1.5<1.0 μM)”. Besides, the IC50 with TNF was under 20 µM.

For `O=C(Nc1ccccn1)N1CCOc2ccc(-c3cccc(C(F)(F)F)c3)nc21` [Compound 502], at SIRT1, the Emax is over 200% and the EC1.5 result is recorded as “A (EC1.5<1.0 μM)”. For the same compound, the IC50 in the test on TNF is at least 20 µM.

As to `O=C(Nc1ccncn1)N1CCOc2ccc(-c3cccc(C(F)(F)F)c3)nc21` [Compound 503], at SIRT1, the Emax was over 200% and the EC1.5 result is “A (EC1.5<1.0 μM)”. The compound also had an IC50 with TNF of at least 20 µM.

`O=C(Nc1cccc(N2CCOCC2)n1)N1CCOc2ccc(-c3cccc(C(F)(F)F)c3)nc21` [Compound 506, N-(6-morpholinopyridin-2-yl)-6-(3-(trifluoromethyl)phenyl)-2H-pyrido[3,2-b][1,4]oxazine-4(3H)-carboxamide]: at SIRT1, the Emax is over 200% and the EC1.5 entry is “A (EC1.5<1.0 μM)”. In addition, the IC50 in the test on TNF is at least 20 µM.

Consider `O=C(Nc1ccnc(N2CCCC2)c1)N1CCOc2ccc(-c3cccc(C(F)(F)F)c3)nc21` [Compound 508], for which, on SIRT1, the Emax was over 200% and the EC1.5 entry is reported as “A (EC1.5<1.0 μM)”. For the same compound, the half-maximal inhibitory concentration (IC50) in the test on TNF is at least 20 µM.

Consider `O=C(Nc1cccc(CN2CCOCC2)n1)N1CCOc2ccc(-c3cccc(C(F)(F)F)c3)nc21` [Compound 510], for which, on SIRT1, the Emax is over 200% and the EC1.5 result is on record as “A (EC1.5<1.0 μM)”. Besides, the IC50 in the test with TNF is at least 20 µM.

For `Cc1cc(C)nc(NC(=O)N2CCOc3ccc(-c4cccc(C(F)(F)F)c4)nc32)c1` [Compound 511], at SIRT1, the Emax is over 200% and the EC1.5 result is “A (EC1.5<1.0 μM)”. Besides, the IC50 with TNF was at least 20 µM.

With `O=C(Nc1ccnc(N2CCC2)c1)N1CCOc2ccc(-c3cccc(C(F)(F)F)c3)nc21` [Compound 513], on SIRT1, the Emax was over 200% and the EC1.5 entry is listed as “A (EC1.5<1.0 μM)”. In addition, the IC50 in the test with TNF is at least 20 µM.

On to `O=C(Nc1ccnc(N2CCC2)c1)N1CCOc2ccc(-c3cccc(F)c3)nc21` [Compound 519], for which, on SIRT1, the Emax was over 200% and the EC1.5 result was “A (EC1.5<1.0 μM)”. Besides, the IC50 in the test on TNF was under 20 µM.

On to `CN1CCN(C(=O)Nc2ccncc2)c2nc(-c3cccc(C(F)(F)F)c3)ccc21` [Compound 531], for which, at SIRT1, the Emax is over 200% and the EC1.5 entry was “A (EC1.5<1.0 μM)”. For the same compound, in the test with TNF, the IC50 was under 20 µM.

As for `Cc1cc(NC(=O)N2CCN(C)c3ccc(-c4cccc(C(F)(F)F)c4)nc32)cc(C)n1` [Compound 532], at SIRT1, the Emax was at most 200% and the EC1.5 entry is “B (EC1.5 1-25 μM)”. For the same compound, in the test on TNF, the IC50 was at least 20 µM.

As to `Cc1csc(NC(=O)N2CCN(C)c3ccc(-c4cccc(C(F)(F)F)c4)nc32)n1` [Compound 533], on SIRT1, the Emax was over 200% and the EC1.5 result was “A (EC1.5<1.0 μM)”. Also, the IC50 with TNF is at least 20 µM.

Consider `Cc1cc(C)nc(NC(=O)N2CCN(C)c3ccc(-c4cccc(C(F)(F)F)c4)nc32)c1` [Compound 534], for which, at SIRT1, the Emax is at most 200% and the EC1.5 entry was “A (EC1.5<1.0 μM)”. For the same compound, in the test with TNF, the IC50 is at least 20 µM.

Turning to `CN1CCN(C(=O)Nc2ccncn2)c2nc(-c3cccc(C(F)(F)F)c3)ccc21` [Compound 535], at SIRT1, the Emax is over 200% and the EC1.5 entry is on record as “A (EC1.5<1.0 μM)”. Also, the IC50 in the test with TNF was at least 20 µM.

As to `CN1CCN(C(=O)Nc2cccnn2)c2nc(-c3cccc(C(F)(F)F)c3)ccc21` [Compound 537], at SIRT1, the Emax was over 200% and the EC1.5 entry was “A (EC1.5<1.0 μM)”. Moreover, the IC50 in the test on TNF is at least 20 µM.

Regarding `CC1(C)CCN(C(=O)Nc2ccncc2F)c2nc(-c3cccc(Cl)c3)ccc2C1=O` [Compound 836, 2-(3-chlorophenyl)-N-(3-fluoropyridin-4-yl)-6,6-dimethyl-5-oxo-7,8-dihydro-5H-pyrido[2,3-b]azepine-9(6H)-carboxamide], at SIRT1, the EC1.5 (concentration giving 1.5-fold activation) lay in the range of 1 to 25 µM and the Emax was at most 200%.

With `Cc1csc(NC(=O)N2CCC(C)(C)C(=O)c3ccc(-c4cccc(Cl)c4)nc32)n1` [Compound 837], on SIRT1, the EC1.5 (concentration giving 1.5-fold activation) is 1 to 25 µM and the Emax was at most 200%.

Take `O=C(Nc1cccc(OCC(O)CO)c1)N1CCC(F)(F)c2ccc(-c3cccc(C(F)(F)F)c3)nc21` (centres unmarked) [Compound 841]: at SIRT1, the EC1.5 (concentration giving 1.5-fold activation) is under 1 µM and the Emax is over 200%.

As to `CC1(C)CCN(C(=O)Nc2ncccc2F)c2nc(-c3cccc(C(F)(F)F)c3)ccc21` [Compound 842], at SIRT1, the EC1.5 (concentration giving 1.5-fold activation) lay in the range of 1 to 25 µM and the Emax was at most 200%.

For the compound `CC1(C)CCN(C(=O)Nc2ccc(F)cn2)c2nc(-c3cccc(C(F)(F)F)c3)ccc21` [Compound 843], at SIRT1, the EC1.5 (concentration giving 1.5-fold activation) fell in the range of 1 to 25 µM and the Emax is at most 200%.

`Cc1cc(OCC(O)CO)nc(NC(=O)N2CCC(C)(C)c3ccc(-c4cccc(C(F)(F)F)c4)nc32)n1` (centres unmarked) [Compound 844]: at SIRT1, the EC1.5 (concentration giving 1.5-fold activation) fell in the range of 1 to 25 µM and the Emax was over 200%.

On to `CC1(C)CCN(C(=O)Nc2cc(OCC(O)CO)ccn2)c2nc(-c3cccc(C(F)(F)F)c3)ccc21` (centres unmarked) [Compound 846], for which, on SIRT1, the EC1.5 (concentration giving 1.5-fold activation) was under 1 µM and the Emax is over 200%.

As for `CC1(C)CCN(C(=O)Nc2ccncc2F)c2nc(-c3cccc(C(F)(F)F)c3)ccc21` [Compound 847], at SIRT1, the EC1.5 (concentration giving 1.5-fold activation) was over 25 µM and the Emax was at most 200%.

As to `O=C(Nc1cncnc1)N1CCCOc2ccc(-c3cccc(Cl)c3)nc21` [Compound 852], on SIRT1, the EC1.5 (concentration giving 1.5-fold activation) fell in the range of 1 to 25 µM and the Emax is over 200%.

As to `O=C(Nc1cncc(F)c1)N1CCCOc2ccc(-c3cccc(Cl)c3)nc21` [Compound 853], on SIRT1, the EC1.5 (concentration giving 1.5-fold activation) was 1 to 25 µM and the Emax was over 200%.

For the compound `COc1nccc(NC(=O)N2CCCOc3ccc(-c4cccc(Cl)c4)nc32)n1` [Compound 854], at SIRT1, the EC1.5 (concentration giving 1.5-fold activation) was in the range of 1 to 25 µM and the Emax was over 200%.

Take `Cc1cnccc1NC(=O)N1CCCOc2ccc(-c3cccc(Cl)c3)nc21` [Compound 855]: at SIRT1, the EC1.5 (concentration giving 1.5-fold activation) lay within 1 to 25 µM and the Emax is at most 200%.

On to `O=C(Nc1ccncc1)N1CCCOc2ccc(-c3cccc(Cl)c3)nc21` [Compound 856], for which, at SIRT1, the EC1.5 (concentration giving 1.5-fold activation) lay in the range of 1 to 25 µM and the Emax is over 200%.

Take `Cc1cc(C)nc(NC(=O)N2CCCOc3ccc(-c4cccc(Cl)c4)nc32)c1` [Compound 857]: on SIRT1, the EC1.5 (concentration giving 1.5-fold activation) is over 25 µM and the Emax was at most 200%.

Take `O=C(Nc1cncc(OCC(O)CO)n1)N1CCCOc2ccc(-c3cccc(Cl)c3)nc21` (centres unmarked) [Compound 858]: at SIRT1, the EC1.5 (concentration giving 1.5-fold activation) was under 1 µM and the Emax is over 200%.

With `Cc1cc(OCC(O)CO)nc(NC(=O)N2CCCOc3ccc(-c4cccc(Cl)c4)nc32)n1` (centres unmarked) [Compound 859], on SIRT1, the EC1.5 (concentration giving 1.5-fold activation) was in the range of 1 to 25 µM and the Emax is over 200%.

Turning to `Cc1cc(NC(=O)N2CCCOc3ccc(-c4cccc(Cl)c4)nc32)ncc1F` [Compound 863], on SIRT1, the EC1.5 (concentration giving 1.5-fold activation) fell in the range of 1 to 25 µM and the Emax is at most 200%.

Take `O=C(Nc1ncccn1)N1CCCOc2ccc(-c3cccc(Cl)c3)nc21` [Compound 865]: at SIRT1, the EC1.5 (concentration giving 1.5-fold activation) lay in the range of 1 to 25 µM and the Emax is over 200%.

For the compound `O=C(Nc1cnccn1)N1CCCOc2ccc(-c3cccc(Cl)c3)nc21` [Compound 866], at SIRT1, the EC1.5 (concentration giving 1.5-fold activation) was 1 to 25 µM and the Emax was over 200%.

On to `O=C(Nc1cccnn1)N1CCCOc2ccc(-c3cccc(Cl)c3)nc21` [Compound 867], for which, on SIRT1, the EC1.5 (concentration giving 1.5-fold activation) is 1 to 25 µM and the Emax is over 200%.

For `Cc1cccnc1NC(=O)N1CCCOc2ccc(-c3cccc(Cl)c3)nc21` [Compound 871], on SIRT1, the EC1.5 (concentration giving 1.5-fold activation) was over 25 µM and the Emax is at most 200%.

As for `COc1cc(NC(=O)N2CCCOc3ccc(-c4cccc(Cl)c4)nc32)ncn1` [Compound 872], at SIRT1, the EC1.5 (concentration giving 1.5-fold activation) was under 1 µM and the Emax is over 200%.

Turning to `Cc1nn(C)c(C)c1NC(=O)N1CCCOc2ccc(-c3cccc(Cl)c3)nc21` [Compound 879], at SIRT1, the EC1.5 (concentration giving 1.5-fold activation) is over 25 µM and the Emax is at most 200%.

For the compound `O=C(Nc1ccnc2cccnc12)N1CCCOc2ccc(-c3cccc(Cl)c3)nc21` [Compound 884], on SIRT1, the EC1.5 (concentration giving 1.5-fold activation) lay in the range of 1 to 25 µM and the Emax was over 200%.

Take `O=C1NCc2cccc(NC(=O)N3CCCOc4ccc(-c5cccc(Cl)c5)nc43)c21` [Compound 885]: at SIRT1, the EC1.5 (concentration giving 1.5-fold activation) fell in the range of 1 to 25 µM and the Emax was at most 200%.
